Measured values: US9079866B2, “Flap modulators” (JANSSEN PHARMACEUTICA NV, priority 2013, dated 2015)
Counter-ions that a name gives are not always drawn. Like-named read-outs stand apart in the source and are kept apart here.

Assays:
[1] = target: human FLAP (Homo sapiens (Human), UniProt P20292); experiment: FLAP binding assay (HTRF format)
In short: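 Binding of compounds to FLAP read out as HTRF ratio. Values are the mean of two assay plates, each sample run in duplicate per plate.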

[2] = system: leukotriene pathway in human whole blood (LTB4 levels); experiment: Human whole blood assay (A23187-stimulated LTB4); assay type: cell-based; details: Homo sapiens, human whole blood diluted 1:1, A23187-stimulated; read-out: LTB4 IC50 1:1
In short: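 Single-replicate data from at least one healthy donor: compound pre-incubated 15 min at 37° Celsius in 1:1 RPMI-diluted heparinised blood, followed by 30 min calcium ionophore A23187 (7 μg/mL) challenge at 37° Celsius. LTB4 in plasma quantified by kit; IC50 via 4-parameter equation.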

[3] = read-out: FLAP Binding wild type HTRF Ki

Chain of human FLAP (P20292 whole entry): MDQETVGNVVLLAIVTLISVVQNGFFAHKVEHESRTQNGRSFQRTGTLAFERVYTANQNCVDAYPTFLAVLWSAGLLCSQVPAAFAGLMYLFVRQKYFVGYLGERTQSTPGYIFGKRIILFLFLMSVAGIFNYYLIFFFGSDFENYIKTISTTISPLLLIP

Structure (SMILES) | Ki ([1]; wild type FLAP, HTRF format) | IC50 [2] | Ki [1, 3]
Nc1cnc(-c2ccc(-c3cccnc3S(=O)(=O)C3CCS(=O)(=O)CC3)cc2F)cn1 [Example 820, 4-((3-(4-(2-Aminopyrazin-5-yl)-3-fluorophenyl)pyridine-2-yl)sulfonyl)tetrahydro-2H-thiopyran 1,1-dioxide] | 3.3 nM | 41.6 nM | 
Nc1cnc(-c2ccc(-c3cccnc3S(=O)(=O)CCN3CCOCC3)cc2F)cn1 [Example 822, 5-(2-Fluoro-4-(2-((2-morpholinoethyl)sulfonyl)pyridine-3-yl)phenyl)pyrazin-2-amine] | 280 nM | 99.1 nM | 
Nc1ncc(-c2ccc(-c3cccnc3S(=O)(=O)CC3CCOCC3)cc2F)cn1 [Example 823, 5-(2-Fluoro-4-(2-(((tetrahydro-2H-pyran-4-yl)methyl)sulfonyl)pyridine-3-yl)pyrimidin-2-amine formic acid salt] | 192 nM | 95.1 nM | 
Nc1cnc(-c2ccc(-c3cccnc3S(=O)(=O)CC3CCOCC3)cc2F)cn1 [Example 824, 5-(2-Fluoro-4-(2-(((tetrahydro-2H-pyran-4-yl)methyl)sulfonyl)pyridine-3-yl)pyrazin-2-amine formic acid salt] | 10.3 nM | 18 nM | 
CC(C)S(=O)(=O)c1ncccc1-c1ccc(-c2cnc(N)nc2)c(F)c1 [Example 825, 5-(2-Fluoro-4-{2-[(1-methylethyl)sulfonyl]pyridin-3-yl}phenyl)pyrimidin-2-amine] | 273 nM | 122 nM | 
CC(C)S(=O)(=O)c1ncccc1-c1ccc(-c2cnc3[nH]ccc3c2)c(F)c1 [Example 826, 5-(2-Fluoro-4-(2-(isopropylsulfonyl)pyridine-3-yl)phenyl)-1H-pyrrolo[2,3-b]pyridine] | 0.7 nM | 19.9 nM | 
Nc1ncc(-c2ccc(-c3cccnc3S(=O)(=O)C3CC3)cc2F)cn1 [Example 828, 5-{4-[2-(Cyclopropylsulfonyl)pyridin-3-yl]-2-fluorophenyl}pyrimidin-2-amine formic acid salt] |  | 260 nM | 115 nM
Nc1cnc(-c2ccc(-c3cccnc3S(=O)(=O)C3CC3)cc2F)cn1 [Example 829, 5-{4-[2-(Cyclopropylsulfonyl)pyridin-3-yl]-2-fluorophenyl}pyrazin-2-amine formic acid salt] | 3.2 nM | 5.96 nM | 
Nc1cnc(-c2ccc(-c3cccnc3S(=O)(=O)C3CCOCC3)cc2F)cn1 [Example 830, 5-{2-Fluoro-4-[2-(tetrahydro-2H-pyran-4-ylsulfonyl)pyridin-3-yl]phenyl}pyrazin-2-amine hydrochloride] | 2.9 nM | 5.55 nM | 
Nc1ncc(-c2ccc(-c3cccnc3S(=O)(=O)C3CCOCC3)cc2F)cn1 [Example 831, 5-{2-Fluoro-4-[2-(tetrahydro-2H-pyran-4-ylsulfonyl)pyridin-3-yl]phenyl}pyrimidin-2-amine formic acid salt] |  | 79.2 nM | 131 nM
COc1c(-c2ccccc2)ccc(-c2cnc(N)cn2)c1F [Example 834, 5-(3-Fluoro-2-methoxybiphenyl-4-yl)pyrazin-2-amine] | 48.9 nM | 1090 nM | 
COc1c(-c2ccccc2S(C)(=O)=O)ccc(-c2cnc(N)cn2)c1F [Example 835, 5-[3-Fluoro-2-methoxy-2′-(methylsulfonyl)biphenyl-4-yl]pyrazin-2-amine] | ~354 nM | 417 nM | 
COc1c(-c2ccccc2S(=O)(=O)NC(C)(C)C)ccc(-c2cnc(N)cn2)c1F [Example 836, 4′-(5-Aminopyrazin-2-yl)-N-tert-butyl-3′-fluoro-2′-methoxybiphenyl-2-sulfonamide] | 25.5 nM | 595 nM | 
Nc1cnc(-c2ccc(-c3ccccc3-c3cnccn3)cc2F)cn1 [Example 838, 5-(3-Fluoro-2′-(pyrazin-2-yl)-[1,1′-biphenyl]-4-yl)pyrazin-2-amine] | 28.6 nM | 350 nM | 
Nc1ncc(-c2ccc(-c3ccccc3-c3cnccn3)cc2F)cn1 [Example 839, 5-(3-Fluoro-2′-pyrazin-2-ylbiphenyl-4-yl)pyrimidin-2-amine] | 830 nM | 2790 nM | 
Nc1cnc(-c2ccc(-c3ccccc3-c3cnc(N)cn3)cc2F)cn1 [Example 840, 5,5′-(3′-Fluorobiphenyl-2,4′-diyl)dipyrazin-2-amine] | 12.7 nM | 99.6 nM | 

Structure (SMILES) | Ki ([1]; wild type FLAP, HTRF format) | IC50 [2] | Ki [1, 3]
Nc1cnc(-c2ccccc2-c2ccc(-c3cnc(N)nc3)c(F)c2)cn1 [Example 841, 5-[2′-(5-Aminopyrazin-2-yl)-3-fluorobiphenyl-4-yl]pyrimidin-2-amine] | 146 nM | 370 nM | 
Nc1cnc(-c2ccc(-c3ccccc3-c3cncc(N)n3)cc2F)cn1 [Example 842, 5-[2′-(6-Aminopyrazin-2-yl)-3-fluorobiphenyl-4-yl]pyrazin-2-amine] | 5.3 nM | 61 nM | 
Nc1cnc(-c2ccc(-c3ccccc3-c3cnc(N)nc3)cc2F)cn1 [Example 843, 5-[4′-(5-Aminopyrazin-2-yl)-3′-fluorobiphenyl-2-yl]pyrimidin-2-amine] | 15.6 nM | 44.3 nM | 
Nc1ncc(-c2ccc(-c3ccccc3-c3cnc(N)nc3)cc2F)cn1 [Example 844, 5,5′-(3′-Fluorobiphenyl-2,4′-diyl)dipyrimidin-2-amine] | 509 nM | 907 nM | 
COc1ncc(-c2ccccc2-c2ccc(-c3cnc(N)cn3)c(F)c2)cn1 [Example 846, 5-[3-Fluoro-2′-(2-methoxypyrimidin-5-yl)biphenyl-4-yl]pyrazin-2-amine] | 10.5 nM | 41.8 nM | 
Cn1cc(-c2ccccc2-c2ccc(-c3cnc(N)cn3)c(F)c2)cn1 [Example 847, 5-[3-Fluoro-2′-(1-methyl-1H-pyrazol-4-yl)biphenyl-4-yl]pyrazin-2-amine] | 8.1 nM | 99.1 nM | 
Nc1cnc(-c2ccc(-c3ccccc3-c3cncnc3)cc2F)cn1 [Example 848, 5-(3-Fluoro-2′-pyrimidin-5-ylbiphenyl-4-yl)pyrazin-2-amine] | 96.8 nM | 322 nM | 
N#Cc1ncc(-c2ccccc2-c2ccc(-c3cnc(N)cn3)c(F)c2)cn1 [Example 849, 5-[4′-(5-Aminopyrazin-2-yl)-3′-fluorobiphenyl-2-yl]pyrimidine-2-carbonitrile] | 35.6 nM | > 1000 nM | 
Nc1cnc(-c2ccc(-c3ccccc3-c3cnc(N4CCOCC4)nc3)cc2F)cn1 [Example 850, 5-[3-Fluoro-2′-(2-morpholin-4-ylpyrimidin-5-yl)biphenyl-4-yl]pyrazin-2-amine] | 37.7 nM | 195 nM | 
CC(C)(O)Cn1cc(-c2ccccc2-c2ccc(-c3cnc(N)cn3)c(F)c2)cn1 [Example 851, 1-{4-[4′-(5-Aminopyrazin-2-yl)-3′-fluorobiphenyl-2-yl]-1H-pyrazol-1-yl}-2-methylpropan-2-ol] | 32.6 nM | 359 nM | 
Nc1cnc(-c2ccc(-c3ccc(C(F)(F)F)cc3C3=CCNCC3)cc2F)cn1 [Example 852, 5-[3-Fluoro-2′-(1,2,3,6-tetrahydropyridin-4-yl)-4′-(trifluoromethyl)biphenyl-4-yl]pyrazin-2-amine] | 118 nM | 1350 nM | 
Nc1cnc(-c2ccc(-c3ccc(C(F)(F)F)cc3-c3cnc(N)nc3)cc2F)cn1 [Example 853, 5-[4′-(5-Aminopyrazin-2-yl)-3′-fluoro-4-(trifluoromethyl)biphenyl-2-yl]pyrimidin-2-amine] | 4.7 nM | 45.6 nM | 
Nc1cnc(-c2ccc(-c3ccccc3N3CCCS3(=O)=O)cc2F)cn1 [Example 856, 5-[2′-(1,1-Dioxidoisothiazolidin-2-yl)-3-fluorobiphenyl-4-yl]pyrazin-2-amine] | 60.5 nM | 83.9 nM | 
Nc1cnc(-c2ccc(-c3ccccc3N3CCCCS3(=O)=O)cc2F)cn1 [Example 857, 5-[2′-(1,1-Dioxido-1,2-thiazinan-2-yl)-3-fluorobiphenyl-4-yl]pyrazin-2-amine] | 28 nM | 205 nM | 
Nc1ncc(-c2ccc(-c3ccccc3N3CCCS3(=O)=O)cc2F)cn1 [Example 858, 5-[2′-(1,1-Dioxidoisothiazolidin-2-yl)-3-fluorobiphenyl-4-yl]pyrimidin-2-amine] | 210 nM | 370 nM | 
